From paper PMC11295118, “Harnessing the Intrinsic Chemical Reactivity of the Mycotoxin Patulin for Immunosensing” (Analytical Chemistry, 2024)
Where a name gives a salt, the structure may show the parent alone.

System: monoclonal antibodies raised against BSA–Ia
Assay: Specificity of the monoclonal antibodies by competitive ELISA
Type: binding, mice
Details: for recognition by the antibodies: competitors tested separately (without derivatization)
Excerpt: The high affinity of the rabbit antisera for patulin after its transformation into adduct I motivated us to pursue the production of monoclonal antibodies (mAbs), given their high value in industry for the development of rapid commercial assays. To this end, standard hybridoma technology was employed with splenocytes from mice immunized with the bioconjugate BSA–Ia, the immunogen that elicited the best response in rabbits (Supporting Information). From two independent cell fusion experiments, three antibody-producing hybridomas capable of recognizing adduct I were generated. Following affinity purification, the mAbs were characterized by direct and indirect competitive ELISA using the homologous and the heterologous conjugate, i.e., based on hapten Ia or Ib, respectively. As summarized in Table S2, the three antibodies successfully recognized both coating conjugates (OVA–Ia and OVA–Ib), yielding IC50 values for patulin below 7.0 nM. […] In the direct competitive format, even better IC50 values were found with mAbs #13 and #17 when used with the homologous enzyme tracer HRP–Ia (IC50 = 0.7–0.8 nM). […]
dissolved in 8‐10 mL of 20 mM phosphate buffer, pH 7.4, and filtered through a nitrocellulose membrane (0.45 μm pore diameter). The resulting filtrate was purified by affinity chromatography with a 5 mL HiTrap Protein G HP column, and the antibody‐containing fractions were gathered and the buffer was exchanged to 20 mM phosphate buffer, pH 7.4, using Amicon Ultra 4 10k centrifugal devices. Final antibody concentration was calculated using the absorption at 280 nm and a molar extinction coefficient of 1.4 L g‐1 c m ‐1. The purified antibodies were precipitated with 1 volume of saturated ammonium sulphate for long‐term storage at 4 °C. […]
Antibody‐coated direct competitive ELISA. […] Following incubation during 10 min at rt, the reaction was stopped by adding 100 µL per well of 1 M H2SO4, and the absorbance was […]
Following incubation during 10 min at rt, the reaction was stopped by adding 100 µL per well of 1 M H2SO4, and the absorbance was immediately read. […]

Compound | recognition by the antibodies | inhibition curves compared with patulin after reacting with 7a (adduct I or derivatized patulin used as competitors)
[Na][S]c1ccccc1[S][Na] [7a, sodium salt of benzene-1,2-dithiol] | did not recognize | 
O=C/C(CC(=O)O)=C1\Sc2ccccc2S[C@H]1CO [adduct I] |  | overlapped
O=C1C=C2C(=CCOC2O)O1 (stereo not drawn) [patulin] | did not recognize | 
